Structures are written as SMILES.

Format in all cases: functional
Common to all, as to settings: route intraperitoneal

Test [1] concerns Mus musculus. Nature of the test: Increase in non-rapid eye movement sleep time in C57BL mouse assessed during first hour of administration at 300 mg/kg, ip.
Test [2] concerns Mus musculus. Nature of the test: Increase in total sleep time in C57BL mouse assessed during first hour of administration at 300 mg/kg, ip.
The subject of test [3] is Mus musculus. Description: Decrease in waking duration in C57BL mouse assessed during first hour of administration at 300 mg/kg, ip. Set-up: scale not given: the % may be the effect or the level left.

As for `C[N+](C)(C)[C@H](Cc1c[nH]c2ccccc12)C(=O)[O-]` [HYPAPHORINE], the Activity in the test on Mus musculus [1] worked out at 33%; in the test on Mus musculus [2] it was 32%; with Mus musculus [3], 16%.

The values above are taken from ChEMBL document CHEMBL1155052, “Hypaphorine, an indole alkaloid from Erythrina velutina, induced sleep on normal mice” (2008).
